| Structure (SMILES) | melting point [°C] |
| --- | --- |
| CCCCc1ncc(/C=C(\Cc2cc3c(cc2OC)OCO3)C(=O)O)n1-c1ccc(OC)cc1OCc1nnnn1CC [Example 23, (E)-3-[2-Butyl-1-[2-(1-ethyl-1H-tetrazol-5-yl)methoxy-4-methoxyphenyl]-1H-imidazol-5-yl]-2-[(2-methoxy-4,5-methylenedioxyphenyl)methyl]-2-propenoic Acid] | 185 to 190 |
| CCCCc1ncc(/C=C(\Cc2cc3c(cc2OC)OCO3)C(=O)O)n1-c1ccc(OC)cc1OCc1nnn(CCC)n1 [Example 24, (E)-3-[2-Butyl-1-[2-(2-propyl-2H-tetrazol-5-yl)methoxy-4-methoxyphenyl]-1H-imidazol-5-yl]-2-[(2-methoxy-4,5-methylenedioxyphenyl)methyl]-2-propenoic Acid] | 110 to 118 |

Source: patent US6620826B2, “Endothelin receptor antagonists” (SmithKline Beecham Corporation, priority 1994, dated 2003)
